Measured values: publication PMC7385619, “A triple action CDK4/6-PI3K-BET inhibitor with augmented cancer cell cytotoxicity” (Cell Discovery, 2020)

How the values were obtained:
Test in all cases: KINOMEscan assay (Eurofins DiscoverX)
Assay type in all cases: binding
kinome (kinase panel) [1] = target: T1, kinome (kinase panel) (Homo sapiens, UniProt P36894); conditions: BMPR1A; 1000 nM; read-out: Percent Control
T1 construct: purchased Eurofins DiscoverX

kinome (kinase panel) [2] = target: T2, kinome (kinase panel) (Homo sapiens, UniProt Q52WX2); conditions: SBK1; 1000 nM; read-out: Percent Control
T2 construct: purchased Eurofins DiscoverX

kinome (kinase panel) [3] = target: T3, kinome (kinase panel) (Homo sapiens, UniProt P51813); conditions: BMX; 1000 nM; read-out: Percent Control
T3 construct: purchased Eurofins DiscoverX

kinome (kinase panel) [4] = target: T4, kinome (kinase panel) (Homo sapiens, UniProt Q99759); conditions: MAP3K3; 1000 nM; read-out: Percent Control
T4 construct: purchased Eurofins DiscoverX

kinome (kinase panel) [5] = target: T5, kinome (kinase panel) (Homo sapiens, UniProt O00750); conditions: PIK3C2B; 1000 nM; read-out: Percent Control
T5 construct: purchased Eurofins DiscoverX

kinome (kinase panel) [6] = target: T6, kinome (kinase panel) (Homo sapiens, UniProt P10721, A829P); conditions: […]; 1000 nM; read-out: Percent Control
T6 construct: purchased Eurofins DiscoverX

kinome (kinase panel) [7] = target: T7, kinome (kinase panel) (Homo sapiens, UniProt P35626); conditions: GRK3 (Entrez ADRBK2); 1000 nM; read-out: Percent Control
T7 construct: purchased Eurofins DiscoverX

kinome (kinase panel) [8] = target: T8, kinome (kinase panel) (Homo sapiens, UniProt P10721, T670I/V559D); conditions: read-out: Percent Control
T8 construct: purchased Eurofins DiscoverX

kinome (kinase panel) [9] = target: T9, kinome (kinase panel) (Homo sapiens, UniProt Q9UL54); conditions: TAOK2; 1000 nM; read-out: Percent Control
T9 construct: purchased Eurofins DiscoverX

kinome (kinase panel) [10] = target: T10, kinome (kinase panel) (Homo sapiens, UniProt P07332); conditions: FES; 1000 nM; read-out: Percent Control
T10 construct: purchased Eurofins DiscoverX

kinome (kinase panel) [11] = target: T11, kinome (kinase panel) (Homo sapiens, UniProt Q99683); conditions: ASK1 (Entrez MAP3K5); 1000 nM; read-out: Percent Control
T11 construct: purchased Eurofins DiscoverX

kinome (kinase panel) [12] = target: T12, kinome (kinase panel) (Homo sapiens, UniProt P42336, E542K); conditions: read-out: Percent Control
T12 construct: purchased Eurofins DiscoverX

kinome (kinase panel) [13] = target: T13, kinome (kinase panel) (Homo sapiens, UniProt P57059); conditions: SIK (SIK1); 1000 nM; read-out: Percent Control
T13 construct: purchased Eurofins DiscoverX

kinome (kinase panel) [14] = target: T14, kinome (kinase panel) (Homo sapiens, UniProt P07949); conditions: RET; 1000 nM; read-out: Percent Control
T14 construct: purchased Eurofins DiscoverX

kinome (kinase panel) [15] = target: T15, kinome (kinase panel) (Homo sapiens, UniProt P29320); conditions: EPHA3; 1000 nM; read-out: Percent Control
T15 construct: purchased Eurofins DiscoverX

kinome (kinase panel) [16] = target: T16, kinome (kinase panel) (Homo sapiens, UniProt Q6DT37); conditions: DMPK2 (Entrez CDC42BPG); 1000 nM; read-out: Percent Control
T16 construct: purchased Eurofins DiscoverX

kinome (kinase panel) [17] = target: T17, kinome (kinase panel) (Homo sapiens, UniProt O75385); conditions: ULK1; 1000 nM; read-out: Percent Control
T17 construct: purchased Eurofins DiscoverX

kinome (kinase panel) [18] = target: T18, kinome (kinase panel) (Homo sapiens, UniProt Q9P2K8, S808G); conditions: read-out: Percent Control
T18 construct: purchased Eurofins DiscoverX

kinome (kinase panel) [19] = target: T19, kinome (kinase panel) (Homo sapiens, UniProt Q16566); conditions: CAMK4; 1000 nM; read-out: Percent Control
T19 construct: purchased Eurofins DiscoverX

kinome (kinase panel) [20] = target: T20, kinome (kinase panel) (Homo sapiens, UniProt P35590); conditions: TIE1; 1000 nM; read-out: Percent Control
T20 construct: purchased Eurofins DiscoverX

kinome (kinase panel) [21] = target: T21, kinome (kinase panel) (Homo sapiens, UniProt P22607, G697C); conditions: read-out: Percent Control
T21 construct: purchased Eurofins DiscoverX

kinome (kinase panel) [22] = target: T22, kinome (kinase panel) (Homo sapiens, UniProt P49840); conditions: GSK3A; 1000 nM; read-out: Percent Control
T22 construct: purchased Eurofins DiscoverX

kinome (kinase panel) [23] = target: T23, kinome (kinase panel) (Homo sapiens, UniProt Q96NX5); conditions: CAMK1G; 1000 nM; read-out: Percent Control
T23 construct: purchased Eurofins DiscoverX

kinome (kinase panel) [24] = target: T24, kinome (kinase panel) (Homo sapiens, UniProt Q14004); conditions: CDC2L5 (Entrez CDK13); 1000 nM; read-out: Percent Control
T24 construct: purchased Eurofins DiscoverX

kinome (kinase panel) [25] = target: T25, kinome (kinase panel) (Homo sapiens, UniProt P08922); conditions: ROS1; 1000 nM; read-out: Percent Control
T25 construct: purchased Eurofins DiscoverX

kinome (kinase panel) [26] = target: T26, kinome (kinase panel) (Homo sapiens, UniProt P54756); conditions: EPHA5; 1000 nM; read-out: Percent Control
T26 construct: purchased Eurofins DiscoverX

kinome (kinase panel) [27] = target: T27, kinome (kinase panel) (Homo sapiens, UniProt P0C264); conditions: SgK110; 1000 nM; read-out: Percent Control
T27 construct: purchased Eurofins DiscoverX

kinome (kinase panel) [28] = target: T28, kinome (kinase panel) (Homo sapiens, UniProt P30530); conditions: AXL; 1000 nM; read-out: Percent Control
T28 construct: purchased Eurofins DiscoverX

kinome (kinase panel) [29] = target: T29, kinome (kinase panel) (Homo sapiens, UniProt Q8WTQ7); conditions: GRK7; 1000 nM; read-out: Percent Control
T29 construct: purchased Eurofins DiscoverX

kinome (kinase panel) [30] = target: T30, kinome (kinase panel) (Homo sapiens, UniProt P27037); conditions: ACVR2A; 1000 nM; read-out: Percent Control
T30 construct: purchased Eurofins DiscoverX

kinome (kinase panel) [31] = target: T31, kinome (kinase panel) (Homo sapiens, UniProt Q6ZWH5); conditions: NEK10; 1000 nM; read-out: Percent Control
T31 construct: purchased Eurofins DiscoverX

kinome (kinase panel) [32] = target: T32, kinome (kinase panel) (Homo sapiens, UniProt Q9UM73, L1196M); conditions: […]; 1000 nM; read-out: Percent Control
T32 construct: purchased Eurofins DiscoverX

kinome (kinase panel) [33] = target: T33, kinome (kinase panel) (Homo sapiens, UniProt Q12852); conditions: DLK (Entrez MAP3K12); 1000 nM; read-out: Percent Control
T33 construct: purchased Eurofins DiscoverX
T33 sequence (Q12852 whole entry): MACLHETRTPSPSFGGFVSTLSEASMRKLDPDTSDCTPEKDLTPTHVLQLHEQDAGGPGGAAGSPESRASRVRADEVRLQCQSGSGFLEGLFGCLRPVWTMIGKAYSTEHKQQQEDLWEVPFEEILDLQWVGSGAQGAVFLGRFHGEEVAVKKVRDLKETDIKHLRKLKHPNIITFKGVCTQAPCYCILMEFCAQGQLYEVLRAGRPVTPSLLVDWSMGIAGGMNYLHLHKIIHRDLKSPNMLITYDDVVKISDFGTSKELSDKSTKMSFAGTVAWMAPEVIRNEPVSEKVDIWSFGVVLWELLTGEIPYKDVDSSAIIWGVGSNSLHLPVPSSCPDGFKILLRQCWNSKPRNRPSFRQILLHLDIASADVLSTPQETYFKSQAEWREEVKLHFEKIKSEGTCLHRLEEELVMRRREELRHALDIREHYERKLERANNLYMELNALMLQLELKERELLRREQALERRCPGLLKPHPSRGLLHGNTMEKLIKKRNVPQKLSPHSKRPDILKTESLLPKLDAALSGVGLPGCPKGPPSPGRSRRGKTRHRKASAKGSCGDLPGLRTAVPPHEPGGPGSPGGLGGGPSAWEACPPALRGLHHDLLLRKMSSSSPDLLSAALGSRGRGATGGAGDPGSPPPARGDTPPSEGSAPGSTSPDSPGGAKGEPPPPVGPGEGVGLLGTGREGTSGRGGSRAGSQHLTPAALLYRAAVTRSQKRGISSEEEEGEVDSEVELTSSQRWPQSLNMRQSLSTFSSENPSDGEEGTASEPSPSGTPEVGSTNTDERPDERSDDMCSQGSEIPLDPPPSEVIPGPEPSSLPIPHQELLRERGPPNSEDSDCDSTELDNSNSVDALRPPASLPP

T9 sequence (Q9UL54 whole entry): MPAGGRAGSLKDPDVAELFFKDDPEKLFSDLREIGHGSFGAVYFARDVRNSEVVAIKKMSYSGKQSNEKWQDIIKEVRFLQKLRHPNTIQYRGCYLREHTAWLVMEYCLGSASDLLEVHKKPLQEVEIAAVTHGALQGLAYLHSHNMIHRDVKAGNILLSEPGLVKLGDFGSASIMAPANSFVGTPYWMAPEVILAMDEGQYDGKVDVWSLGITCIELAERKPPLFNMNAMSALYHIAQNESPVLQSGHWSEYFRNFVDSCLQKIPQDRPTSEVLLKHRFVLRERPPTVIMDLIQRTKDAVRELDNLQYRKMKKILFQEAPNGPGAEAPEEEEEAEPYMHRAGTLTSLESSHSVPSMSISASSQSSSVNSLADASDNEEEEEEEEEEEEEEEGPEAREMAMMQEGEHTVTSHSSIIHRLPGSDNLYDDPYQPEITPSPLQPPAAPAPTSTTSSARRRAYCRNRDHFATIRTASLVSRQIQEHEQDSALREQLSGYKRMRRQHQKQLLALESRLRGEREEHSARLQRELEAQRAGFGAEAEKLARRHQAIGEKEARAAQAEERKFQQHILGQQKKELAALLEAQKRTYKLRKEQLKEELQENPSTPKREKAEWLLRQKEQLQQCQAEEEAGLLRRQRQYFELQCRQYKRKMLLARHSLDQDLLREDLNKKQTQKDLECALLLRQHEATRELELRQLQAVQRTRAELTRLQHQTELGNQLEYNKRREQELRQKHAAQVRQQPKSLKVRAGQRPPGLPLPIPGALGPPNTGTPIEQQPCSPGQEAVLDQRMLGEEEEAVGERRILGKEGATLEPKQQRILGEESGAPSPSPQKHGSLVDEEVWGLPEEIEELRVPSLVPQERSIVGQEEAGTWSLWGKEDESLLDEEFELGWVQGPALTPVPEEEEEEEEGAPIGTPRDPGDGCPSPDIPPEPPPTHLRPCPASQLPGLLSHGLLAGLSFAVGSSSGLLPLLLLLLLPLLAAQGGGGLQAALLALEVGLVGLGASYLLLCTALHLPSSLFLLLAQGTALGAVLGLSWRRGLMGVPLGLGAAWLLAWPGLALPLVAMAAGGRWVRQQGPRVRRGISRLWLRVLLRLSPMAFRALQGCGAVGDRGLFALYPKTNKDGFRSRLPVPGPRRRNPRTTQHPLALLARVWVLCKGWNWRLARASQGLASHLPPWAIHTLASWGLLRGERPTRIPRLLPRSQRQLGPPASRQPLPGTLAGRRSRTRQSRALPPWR
T27 sequence (P0C264 whole entry): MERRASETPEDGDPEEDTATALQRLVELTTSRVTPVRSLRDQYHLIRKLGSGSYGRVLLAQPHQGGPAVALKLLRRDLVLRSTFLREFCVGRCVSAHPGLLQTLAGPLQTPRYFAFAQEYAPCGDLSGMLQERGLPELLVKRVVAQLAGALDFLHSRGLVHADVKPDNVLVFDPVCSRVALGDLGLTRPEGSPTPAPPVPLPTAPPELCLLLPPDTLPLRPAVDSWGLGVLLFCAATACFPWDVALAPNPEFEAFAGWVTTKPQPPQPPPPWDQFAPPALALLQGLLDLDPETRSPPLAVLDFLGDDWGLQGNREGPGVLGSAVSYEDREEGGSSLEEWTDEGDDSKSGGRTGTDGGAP
T17 sequence (O75385 whole entry): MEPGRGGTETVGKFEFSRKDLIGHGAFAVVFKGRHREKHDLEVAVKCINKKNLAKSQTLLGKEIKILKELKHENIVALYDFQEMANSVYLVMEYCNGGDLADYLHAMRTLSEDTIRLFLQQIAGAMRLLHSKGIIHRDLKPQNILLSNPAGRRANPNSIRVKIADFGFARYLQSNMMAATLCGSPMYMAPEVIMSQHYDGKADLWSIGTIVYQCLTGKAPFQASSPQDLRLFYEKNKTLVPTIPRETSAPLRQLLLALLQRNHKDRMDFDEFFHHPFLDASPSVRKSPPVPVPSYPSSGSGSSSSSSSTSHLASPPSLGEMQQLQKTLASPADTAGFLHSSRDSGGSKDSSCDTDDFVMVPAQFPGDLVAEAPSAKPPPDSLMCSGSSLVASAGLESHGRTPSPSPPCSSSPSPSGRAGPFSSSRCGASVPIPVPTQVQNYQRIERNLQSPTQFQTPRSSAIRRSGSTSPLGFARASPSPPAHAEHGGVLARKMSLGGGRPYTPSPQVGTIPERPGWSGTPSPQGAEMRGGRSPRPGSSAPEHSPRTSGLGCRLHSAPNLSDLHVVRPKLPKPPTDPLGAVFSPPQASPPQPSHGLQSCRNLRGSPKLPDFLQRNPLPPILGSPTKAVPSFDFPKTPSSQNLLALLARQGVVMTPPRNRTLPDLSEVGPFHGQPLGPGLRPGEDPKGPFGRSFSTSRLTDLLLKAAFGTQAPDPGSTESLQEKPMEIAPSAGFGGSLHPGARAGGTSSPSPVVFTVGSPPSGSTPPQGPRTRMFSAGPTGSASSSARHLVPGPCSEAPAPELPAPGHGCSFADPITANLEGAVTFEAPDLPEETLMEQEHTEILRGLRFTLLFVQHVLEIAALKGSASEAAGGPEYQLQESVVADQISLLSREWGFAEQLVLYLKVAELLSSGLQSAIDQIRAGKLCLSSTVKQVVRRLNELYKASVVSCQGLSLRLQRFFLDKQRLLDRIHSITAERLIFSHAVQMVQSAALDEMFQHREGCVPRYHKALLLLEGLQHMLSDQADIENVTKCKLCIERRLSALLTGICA
T22 sequence (P49840 whole entry): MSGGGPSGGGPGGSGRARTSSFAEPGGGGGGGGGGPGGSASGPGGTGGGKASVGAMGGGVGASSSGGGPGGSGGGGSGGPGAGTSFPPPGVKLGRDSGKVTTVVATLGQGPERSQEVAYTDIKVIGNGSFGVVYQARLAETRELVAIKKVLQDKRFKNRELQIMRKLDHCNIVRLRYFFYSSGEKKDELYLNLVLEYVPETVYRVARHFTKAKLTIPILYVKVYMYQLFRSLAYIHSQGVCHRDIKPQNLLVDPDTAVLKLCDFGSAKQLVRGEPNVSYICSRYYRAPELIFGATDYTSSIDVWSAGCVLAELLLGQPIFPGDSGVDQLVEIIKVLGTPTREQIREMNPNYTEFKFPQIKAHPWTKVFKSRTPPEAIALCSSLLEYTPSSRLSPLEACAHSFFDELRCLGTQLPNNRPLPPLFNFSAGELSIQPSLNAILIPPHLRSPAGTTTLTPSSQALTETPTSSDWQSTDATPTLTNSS
T2 sequence (Q52WX2 whole entry): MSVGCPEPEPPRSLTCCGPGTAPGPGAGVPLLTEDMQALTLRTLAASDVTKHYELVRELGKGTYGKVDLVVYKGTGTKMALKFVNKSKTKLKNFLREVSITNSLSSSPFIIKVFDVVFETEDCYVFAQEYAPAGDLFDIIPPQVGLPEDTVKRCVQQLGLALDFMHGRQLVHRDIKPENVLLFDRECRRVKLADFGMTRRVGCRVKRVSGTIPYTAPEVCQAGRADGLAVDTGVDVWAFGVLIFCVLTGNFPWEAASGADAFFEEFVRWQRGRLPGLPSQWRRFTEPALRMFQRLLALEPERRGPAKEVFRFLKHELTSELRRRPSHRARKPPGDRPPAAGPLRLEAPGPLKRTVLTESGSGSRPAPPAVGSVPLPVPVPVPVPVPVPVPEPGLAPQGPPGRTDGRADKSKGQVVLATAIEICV
T1 sequence (P36894 24-532): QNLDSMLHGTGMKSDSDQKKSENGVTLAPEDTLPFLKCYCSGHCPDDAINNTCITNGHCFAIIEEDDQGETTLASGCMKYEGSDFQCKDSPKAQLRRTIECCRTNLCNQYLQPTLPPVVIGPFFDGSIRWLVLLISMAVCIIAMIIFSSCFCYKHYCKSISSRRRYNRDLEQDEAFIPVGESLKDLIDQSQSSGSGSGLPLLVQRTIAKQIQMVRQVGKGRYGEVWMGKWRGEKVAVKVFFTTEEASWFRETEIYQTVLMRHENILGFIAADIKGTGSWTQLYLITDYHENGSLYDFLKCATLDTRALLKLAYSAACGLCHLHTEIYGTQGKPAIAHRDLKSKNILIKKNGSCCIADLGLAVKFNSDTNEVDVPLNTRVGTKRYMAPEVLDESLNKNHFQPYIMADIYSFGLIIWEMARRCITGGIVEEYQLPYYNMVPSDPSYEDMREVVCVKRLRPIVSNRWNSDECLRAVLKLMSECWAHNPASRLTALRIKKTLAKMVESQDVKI

## CN(C)C(=O)c1cc2cnc(Nc3ccc(-c4csc5c(=O)cc(N6CCOCC6)oc45)cc3)nc2n1C1CCCC1 [SRX3177]
Kinome (kinase panel) [1]
  remaining binding at 1 µM: 100%
Kinome (kinase panel) [2]
  remaining binding at 1 µM: 67%
Kinome (kinase panel) [3]
  remaining binding at 1 µM: 77%
Kinome (kinase panel) [4]
  remaining binding at 1 µM: 58%
Kinome (kinase panel) [5]
  remaining binding at 1 µM: 86%
Kinome (kinase panel) [6]
  remaining binding at 1 µM: 1.6%
Kinome (kinase panel) [7]
  remaining binding at 1 µM: 46%
Kinome (kinase panel) [8]
  remaining binding at 1 µM: 100%
Kinome (kinase panel) [9]
  remaining binding at 1 µM: 20%
Kinome (kinase panel) [10]
  remaining binding at 1 µM: 88%
Kinome (kinase panel) [11]
  remaining binding at 1 µM: 100%
Kinome (kinase panel) [12]
  remaining binding at 1 µM: 40%
Kinome (kinase panel) [13]
  remaining binding at 1 µM: 94%
Kinome (kinase panel) [14]
  remaining binding at 1 µM: 100%
Kinome (kinase panel) [15]
  remaining binding at 1 µM: 90%
Kinome (kinase panel) [16]
  remaining binding at 1 µM: 91%
Kinome (kinase panel) [17]
  remaining binding at 1 µM: 90%
Kinome (kinase panel) [18]
  remaining binding at 1 µM: 71%
Kinome (kinase panel) [19]
  remaining binding at 1 µM: 100%
Kinome (kinase panel) [20]
  remaining binding at 1 µM: 77%
Kinome (kinase panel) [21]
  remaining binding at 1 µM: 89%
Kinome (kinase panel) [22]
  remaining binding at 1 µM: 60%
Kinome (kinase panel) [23]
  remaining binding at 1 µM: 75%
Kinome (kinase panel) [24]
  remaining binding at 1 µM: 4.1%
Kinome (kinase panel) [25]
  remaining binding at 1 µM: 96%
Kinome (kinase panel) [26]
  remaining binding at 1 µM: 100%
Kinome (kinase panel) [27]
  remaining binding at 1 µM: 38%
Kinome (kinase panel) [28]
  remaining binding at 1 µM: 89%
Kinome (kinase panel) [29]
  remaining binding at 1 µM: 100%
Kinome (kinase panel) [30]
  remaining binding at 1 µM: 99%
Kinome (kinase panel) [31]
  remaining binding at 1 µM: 100%
Kinome (kinase panel) [32]
  remaining binding at 1 µM: 84%
Kinome (kinase panel) [33]
  remaining binding at 1 µM: 73%
